Assay results reported in ChEMBL document CHEMBL1212697, “High-content single-cell drug screening with phosphospecific flow cytometry” (Nat Chem Biol, 2008).
Calls of active or inactive are those of the source.

Experiments:
[1] = Inhibition of JAK-mediated IL4-induced Stat5 phosphorylation in BALB/c mouse CD11b-int macrophages by Phospho-Flow cytometry
[2] = target: T1, Janus Kinase (JAK) (Homo sapiens) (UniProt P52333+P23458+O60674+P29597); test: Inhibition of JAK-mediated GM-CSF-induced Stat5 phosphorylation in human U937 cells by Phospho-Flow cytometry at 20 uM; format: cell-based; conditions: U-937
[3] = target: T1, Janus Kinase (JAK) (Homo sapiens); test: Inhibition of JAK-mediated interferon-gamma-induced Stat1 phosphorylation in human U937 cells by Phospho-Flow cytometry at 20 uM; format: cell-based; conditions: U-937
MAP kinase p38 = MAP kinase p38 (Homo sapiens, UniProt O15264+Q15759+Q16539+P53778); test: Inhibition of anisomycin-induced p38 phosphorylation in human U937 cells by Phospho-Flow cytometry at 20 uM; format: cell-based; conditions: U-937
Mus musculus [4] = species: Mus musculus; test: Inhibition of JAK-mediated IL4-induced Stat6 phosphorylation in BALB/c mouse CD11b-hi neutrophils by Phospho-Flow cytometry
Mus musculus [5] = species: Mus musculus; test: Inhibition of JAK-mediated IL4-induced Stat6 phosphorylation in BALB/c mouse CD8+ Tcells by Phospho-Flow cytometry
[6] = Inhibition of JAK-mediated IL6-induced Stat1 phosphorylation in BALB/c mouse B cells by Phospho-Flow cytometry; format: cell-based
[7] = Inhibition of JAK-mediated IL10-induced Stat3 phosphorylation in BALB/c mouse B cells by Phospho-Flow cytometry; format: cell-based
[8] = Inhibition of JAK-mediated interferon-gamma-induced Stat1 phosphorylation in BALB/c mouse B cells by Phospho-Flow cytometry; format: cell-based
[9] = Inhibition of JAK-mediated IL6-induced Stat3 phosphorylation in BALB/c mouse B cells by Phospho-Flow cytometry; format: cell-based
[10] = Inhibition of JAK-mediated IL15-induced Stat5 phosphorylation in BALB/c mouse B cells by Phospho-Flow cytometry; format: cell-based
[11] = Inhibition of JAK-mediated IL7-induced Stat5 phosphorylation in BALB/c mouse B cells by Phospho-Flow cytometry; format: cell-based
[12] = Inhibition of JAK-mediated IL4-induced Stat6 phosphorylation in BALB/c mouse B cells by Phospho-Flow cytometry; format: cell-based
[13] = Inhibition of JAK-mediated IL4-induced Stat5 phosphorylation in BALB/c mouse B cells by Phospho-Flow cytometry; format: cell-based
[14] = Inhibition of JAK-mediated IL6-induced Stat1 phosphorylation in BALB/c mouse CD4+ T cells by Phospho-Flow cytometry; format: cell-based; conditions: T-cell
[15] = Inhibition of JAK-mediated IL10-induced Stat3 phosphorylation in BALB/c mouse CD4+ T cells by Phospho-Flow cytometry; format: cell-based; conditions: T-cell
[16] = Inhibition of JAK-mediated interferon-gamma-induced Stat1 phosphorylation in BALB/c mouse CD4+ T cells by Phospho-Flow cytometry; format: cell-based; conditions: T-cell
[17] = Inhibition of JAK-mediated IL6-induced Stat3 phosphorylation in BALB/c mouse CD4+ T cells by Phospho-Flow cytometry; format: cell-based; conditions: T-cell
[18] = Inhibition of JAK-mediated IL15-induced Stat5 phosphorylation in BALB/c mouse CD4+ T cells by Phospho-Flow cytometry; format: cell-based; conditions: T-cell
[19] = Inhibition of JAK-mediated IL7-induced Stat5 phosphorylation in BALB/c mouse CD4+ T cells by Phospho-Flow cytometry; format: cell-based; conditions: T-cell
[20] = Inhibition of JAK-mediated IL4-induced Stat6 phosphorylation in BALB/c mouse CD4+ T cells by Phospho-Flow cytometry; format: cell-based; conditions: T-cell
[21] = Inhibition of JAK-mediated IL4-induced Stat5 phosphorylation in BALB/c mouse CD4+ T cells by Phospho-Flow cytometry; format: cell-based; conditions: T-cell
[22] = Inhibition of JAK-mediated IL6-induced Stat1 phosphorylation in BALB/c mouse CD8+ T cells by Phospho-Flow cytometry; format: cell-based; conditions: T-cell
[23] = Inhibition of JAK-mediated IL10-induced Stat3 phosphorylation in BALB/c mouse CD8+ T cells by Phospho-Flow cytometry; format: cell-based; conditions: T-cell
[24] = Inhibition of JAK-mediated IL6-induced Stat3 phosphorylation in BALB/c mouse CD8+ T cells by Phospho-Flow cytometry; format: cell-based; conditions: T-cell
[25] = Inhibition of JAK-mediated IL15-induced Stat5 phosphorylation in BALB/c mouse CD8+ T cells by Phospho-Flow cytometry; format: cell-based; conditions: T-cell
[26] = Inhibition of JAK-mediated IL7-induced Stat5 phosphorylation in BALB/c mouse CD8+ T cells by Phospho-Flow cytometry; format: cell-based; conditions: T-cell
[27] = Inhibition of JAK-mediated IL4-induced Stat6 phosphorylation in BALB/c mouse CD8+ T cells by Phospho-Flow cytometry; format: cell-based; conditions: T-cell
[28] = Inhibition of JAK-mediated IL4-induced Stat5 phosphorylation in BALB/c mouse CD8+ T cells by Phospho-Flow cytometry; format: cell-based; conditions: T-cell
[29] = Inhibition of JAK-mediated IL6-induced Stat1 phosphorylation in BALB/c mouse CD11b-hi neutrophils by Phospho-Flow cytometry
[30] = Inhibition of JAK-mediated IL10-induced Stat3 phosphorylation in BALB/c mouse CD11b-hi neutrophils by Phospho-Flow cytometry
[31] = Inhibition of JAK-mediated interferon-gamma-induced Stat1 phosphorylation in BALB/c mouse CD11b-hi neutrophils by Phospho-Flow cytometry
[32] = Inhibition of JAK-mediated IL6-induced Stat3 phosphorylation in BALB/c mouse CD11b-hi neutrophils by Phospho-Flow cytometry
[33] = Inhibition of JAK-mediated IL15-induced Stat5 phosphorylation in BALB/c mouse CD11b-hi neutrophils by Phospho-Flow cytometry
[34] = Inhibition of JAK-mediated IL7-induced Stat5 phosphorylation in BALB/c mouse CD11b-hi neutrophils by Phospho-Flow cytometry
[35] = Inhibition of JAK-mediated IL4-induced Stat5 phosphorylation in BALB/c mouse CD11b-hi neutrophils by Phospho-Flow cytometry
[36] = Inhibition of JAK-mediated IL6-induced Stat1 phosphorylation in BALB/c mouse CD11b-int macrophages by Phospho-Flow cytometry
[37] = Inhibition of JAK-mediated IL10-induced Stat3 phosphorylation in BALB/c mouse CD11b-int macrophages by Phospho-Flow cytometry
[38] = Inhibition of JAK-mediated interferon-gamma-induced Stat1 phosphorylation in BALB/c mouse CD11b-int macrophages by Phospho-Flow cytometry
[39] = Inhibition of JAK-mediated IL6-induced Stat3 phosphorylation in BALB/c mouse CD11b-int macrophages by Phospho-Flow cytometry
[40] = Inhibition of JAK-mediated IL15-induced Stat5 phosphorylation in BALB/c mouse CD11b-int macrophages by Phospho-Flow cytometry
[41] = Inhibition of JAK-mediated IL7-induced Stat5 phosphorylation in BALB/c mouse CD11b-int macrophages by Phospho-Flow cytometry
[42] = Inhibition of JAK-mediated IL4-induced Stat6 phosphorylation in BALB/c mouse CD11b-int macrophages by Phospho-Flow cytometry
B [43] = test: Inhibition of JAK-mediated IL10-induced Stat3 phosphorylation in BALB/c mouse B cells at 1 uM by Western blotting analysis; format: cell-based
B [44] = test: Inhibition of JAK-mediated IL4-induced Stat5 phosphorylation in BALB/c mouse B cells at 1 uM by Western blotting analysis; format: cell-based
B [45] = test: Inhibition of JAK-mediated IL4-induced Stat6 phosphorylation in BALB/c mouse B cells at 10 uM by Western blotting analysis; format: cell-based
B [46] = test: Inhibition of JAK-mediated interferon-gamma-induced Stat1 phosphorylation in BALB/c mouse B cells at 3.5 uM by Phospho-Flow cytometry; format: cell-based
T-cell = test: Inhibition of JAK-mediated interferon-gamma-induced Stat1 phosphorylation in BALB/c mouse CD4+ T cells at 100 uM by Phospho-Flow cytometry; format: cell-based
Mus musculus [47] = test: In vivo inhibition of JAK-mediated IL4-induced Stat6 phosphorylation in blood cells in BALB/c mouse at 1 to 10 mg/kg, iv administered 30 mins before IL challenge for 15 mins; format: functional, organism-based
Mus musculus [48] = test: In vivo inhibition of JAK-mediated IL6-induced Stat3 phosphorylation in blood cells in BALB/c mouse at 1 to 10 mg/kg, iv administered 30 mins before IL challenge for 15 mins; format: functional, organism-based
Mus musculus [49] = test: In vivo inhibition of JAK-mediated IL4-induced Stat6 phosphorylation in spleen cells in BALB/c mouse at 1 to 10 mg/kg, iv administered 30 mins before IL challenge for 15 mins; format: functional, organism-based
Mus musculus [50] = test: In vivo inhibition of JAK-mediated IL6-induced Stat3 phosphorylation in spleen cells in BALB/c mouse at 1 to 10 mg/kg, iv administered 30 mins before IL challenge for 15 mins; format: functional, organism-based

C=C1C(=O)O[C@H]2C[C@@H]1[C@@H](OC(C)=O)C/C(C)=C/CC/C(C)=C\CC[C@@]2(C)O [CRASSIN]
active: inhibition [2] | inhibition (Mus musculus [4]) Dose-dependent effect | inhibition (Mus musculus [5]) Dose-dependent effect | inhibition (B [43]) | inhibition (B [44]) | inhibition (B [45])
< 20 µM: IC50 [1] | IC50 [6] | IC50 [8] | IC50 [9] | IC50 [10] | IC50 [11] | IC50 [14] | IC50 [15] | IC50 [16] | IC50 [17] | IC50 [18] | IC50 [19] | IC50 [20] | IC50 [21] | IC50 [22] | IC50 [23] | IC50 [24] | IC50 [25] | IC50 [26] | IC50 [27] | IC50 [28] | IC50 [29] | IC50 [30] | IC50 [31] | IC50 [32] | IC50 [33] | IC50 [34] | IC50 [35] | IC50 [36] | IC50 [37] | IC50 [38] | IC50 [39] | IC50 [40] | IC50 [41] | IC50 [42]
1000 nM: IC50 [7] | IC50 [13]
16 µM: IC50 [12]
25%: inhibition [3] | inhibition (MAP kinase p38)

COC1=C(N)C(=O)c2nc(-c3nc(C(=O)O)c(C)c(-c4ccc(OC)c(OC)c4O)c3N)ccc2C1=O [STREPTONIGRIN]
< 50%: inhibition (T-cell)
active: inhibition (B [46]) | inhibition (Mus musculus [47]) | inhibition (Mus musculus [48]) | inhibition (Mus musculus [49]) | inhibition (Mus musculus [50])
< 20 µM: IC50 [1] | IC50 [6] | IC50 [8] | IC50 [9] | IC50 [10] | IC50 [11] | IC50 [14] | IC50 [15] | IC50 [16] | IC50 [17] | IC50 [18] | IC50 [19] | IC50 [20] | IC50 [21] | IC50 [22] | IC50 [23] | IC50 [24] | IC50 [25] | IC50 [26] | IC50 [27] | IC50 [28] | IC50 [29] | IC50 [30] | IC50 [31] | IC50 [32] | IC50 [33] | IC50 [34] | IC50 [35] | IC50 [36] | IC50 [37] | IC50 [38] | IC50 [39] | IC50 [40] | IC50 [41] | IC50 [42]
25%: inhibition [2] | inhibition (MAP kinase p38)
> 65%: inhibition [3]
< 20000 nM: IC50 [7] | IC50 [13]
